Assay results: article PMC9127750, “Structure-based design of CDC42 effector interaction inhibitors for the treatment of cancer” (Cell reports, 2022)
Several values for one entry are separate records, joined by “and”; a condition that tells them apart may be missing. Identical values can stand only once.

Test system: WM3248 melanoma cells, 486 antibodies
Test: Reverse phase protein arrays (RPPA)
Type: cell-based, Human
Excerpt: Pellets were snap frozen in liquid nitrogen and shipped to MD Anderson Cancer Center core RPPA facility for RPPA analysis (Table S5). Three biological replicates for each sample were generated.
Nomenclatures on the RPPA heatmaps: name_of_antibody.species_of_antibody.status_of_antibody. V - antibody validated; C - validation of antibody in progress; Q - antibody nonspecific; E – under evaluation; antibodies raised in M - mouse, G - goat, R - rabbit, or T - rat.

CN(C)c1cccc(Nc2cc(-c3ccccc3)nc(C3CCNCC3)n2)c1 [ARN22089, N1,N1-dimethyl-N3-(6-phenyl-2-(piperidin-4-yl)pyrimidin-4-yl)benzene-1,3-diamine]
RPPA Gab2.R.V (10 uM, single samples): 0.930 and 0.844 | RPPA Gli1.R.C (10 uM, single samples): 0.975 and 0.972 | RPPA Gli3.R.C (10 uM, single samples): 0.999 and 0.965 and 0.950 | RPPA Glucocorticoid.Receptor.R.V (10 uM, single samples): 1.129 and 1.132 and 0.984 | RPPA Glutamate.D1.2.R.V (10 uM, single samples): 1.103 and 0.990 | RPPA Glutaminase.R.C (10 uM, single samples): 0.915 and 0.958 and 0.933 | RPPA Granzyme.B.R.V (10 uM, single samples): 0.958 and 0.982 and 0.983 | RPPA Grp75.R.C (10 uM, single samples): 1.161 and 1.138 and 0.943 | RPPA Gys.R.V (10 uM, single samples): 0.976 and 0.935 and 1.023 | RPPA Gys_pS641.R.V (10 uM, single samples): 0.940 and 1.033 and 1.049 | RPPA H2AX_pS139.R.C (10 uM, single samples): 1.009 and 0.918 | RPPA H2AX_pS140.M.C (10 uM, single samples): 1.079 and 1.061 | RPPA HER2.M.V (10 uM, single samples): 1.048 | RPPA HER2_pY1248.R.V (10 uM, single samples): 0.857 and 0.890 and 0.990 | RPPA HER3.R.V (10 uM, single samples): 1.151 and 0.962 and 0.842 | RPPA HER3_pY1289.R.C (10 uM, single samples): 0.893 and 0.994 | RPPA HES1.R.V (10 uM, single samples): 0.925 and 1.199 and 0.845 | RPPA Heregulin.R.V (10 uM, single samples): 0.811 and 0.959 and 0.936 | RPPA eEF2K.R.V (10 uM, single samples): 1.065 | RPPA eIF4E.R.V (10 uM, single samples): 1.415 and 0.768 and 0.752 | RPPA eIF4E_pS209.R.V (10 uM, single samples): 0.931 and 1.049 and 1.085 | RPPA eIF4G.R.C (10 uM, single samples): 1.057 and 0.870 and 0.859 | RPPA MYH11.R.C Average (20 uM): 1.101 | RPPA Myosin.IIa.R.C Average (20 uM): 0.941 | RPPA Myosin.IIa_pS1943.R.V Average (20 uM): 0.973 | RPPA Myt1.R.C Average (20 uM): 1.012 | RPPA N.Cadherin.R.V Average (20 uM): 1.035 | RPPA N.Ras.M.V Average (20 uM): 0.928 | RPPA NAPSIN.A.R.C Average (20 uM): 1.046 | RPPA NDRG1_pT346.R.V Average (20 uM): 0.991 | RPPA NDUFB4.R.V Average (20 uM): 1.026 | RPPA NRF2.R.C Average (20 uM): 0.936 | RPPA Notch1.cleaved.R.V Average (20 uM): 0.890 | RPPA Oct.4.R.C Average (20 uM): 1.121 | RPPA P.Cadherin.R.C Average (20 uM): 1.190 | RPPA PAICS.R.C Average (20 uM): 0.891 | RPPA PAK1.R.V Average (20 uM): 0.919 | RPPA PAK_pS474_S602_S560.R.V Average (20 uM): 1.203 | RPPA PAK_pT423_T402.R.C Average (20 uM): 1.013 | RPPA PAR.R.C Average (20 uM): 1.051 | RPPA PARG.R.C Average (20 uM): 1.310 | RPPA PARP.R.V Average (20 uM): 0.981 | RPPA PAX6.R.V Average (20 uM): 1.013 | RPPA PAX8.R.C Average (20 uM): 0.970 | RPPA PCNA.M.C Average (20 uM): 0.864 | RPPA PD.L1.R.C Average (20 uM): 0.983 | RPPA PDH.M.V Average (20 uM): 0.994 | RPPA PDHA1.R.V Average (20 uM): 1.030 | RPPA PDHK1.R.C Average (20 uM): 0.963 | RPPA PDK1.R.V Average (20 uM): 1.096 | RPPA PDK1_pS241.R.V Average (20 uM): 0.972 | RPPA PEA.15.R.V Average (20 uM): 0.952 | RPPA PEA.15_pS116.R.V Average (20 uM): 1.019 | RPPA PERK.R.V Average (20 uM): 0.988 | RPPA PGM1.R.V Average (20 uM): 0.940 | RPPA PHGDH.R.C Average (20 uM): 0.998 | RPPA PHLPP.R.V Average (20 uM): 1.124 | RPPA PI3K.p85.R.C Average (20 uM): 0.900 | RPPA PI3K.p110.a.R.C Average (20 uM): 0.931 | RPPA PKA.a.R.V Average (20 uM): 0.928 | RPPA PKC.a.b.II_pT638_T641.R.V Average (20 uM): 0.926 | RPPA PKC.b.II_pS660.R.V Average (20 uM): 1.079 | RPPA PKCa.R.V Average (20 uM): 1.559 | RPPA PKM2.R.C Average (20 uM): 0.899 | RPPA PLC.gamma1_pS1248.R.V Average (20 uM): 0.895 | RPPA PLC.gamma2_pY759.R.V Average (20 uM): 0.983 | RPPA PLK1.R.C Average (20 uM): 0.920 | RPPA PMS2.R.V Average (20 uM): 0.986 | RPPA PR.R.V Average (20 uM): 0.956 | RPPA PRAS40.M.C Average (20 uM): 1.227 | RPPA PRAS40_pT246.R.V Average (20 uM): 1.102 | RPPA PRC1_pT481.R.C Average (20 uM): 1.084 | RPPA Patched.R.C Average (20 uM): 1.079 | RPPA Paxillin.R.C Average (20 uM): 0.827 | RPPA Pdcd4.R.C Average (20 uM): 0.990 | RPPA Porin.M.V Average (20 uM): 1.051 | RPPA p21.R.C Average (20 uM): 0.828 | RPPA p27.Kip1.R.C Average (20 uM): 1.157 | RPPA p27_pT157.R.C Average (20 uM): 1.214 | RPPA p27_pT198.R.V Average (20 uM): 1.156 | RPPA p38.MAPK.R.V Average (20 uM): 0.981
